Test results from patent US6355428B1, “Nucleic acid ligand interaction assays” (Genelabs Technologies, Inc., priority 1998, dated 2002).

Legend:
[1] = system: A/T rich, G/C rich and mixed sequence DNA oligonucleotides; assay: SPA direct binding assay, sequence preference over panel of indicator oligonucleotides
From the text: This technology can be applied to studies of ligand binding as disclosed herein. […] These beads are impregnated with scintillant. The second oligonucleotide is labeled with a weak β-emitter, such as ^3H or ^33P. The radioactive second oligonucleotide is mixed with a solution of the beads under conditions at which the first and second oligonucleotides exist primarily as single strands, as described above. The signal will thus be low, as the oligonucleotides are non-hybridized. When ligand is added, the duplex form is stabilized, and the increased proximity of the radioactive isotope (e.g., ^3H, ^33P) in the second oligonucleotide causes the bead to which the first oligonucleotide is bound to scintillate. A signal thus indicates the presence of an effective binding ligand molecule; test sequences giving higher signals indicate the relative preference for different sequences.
Indicator oligonucleotides as shown in Table 1 were used in this assay, as shown in Table II and FIGS. 4A-E. One strand of each duplex was labeled with biotin at the 5′-end, and the complementary strand was 3′-labeled with ^33P. The two complementary strands were incubated with streptavidin-coated SPA beads (Amersham, Arlington Heights, Ill.) at room temperature in a buffer containing 20 mM HEPES, pH 7.5, 0.1 mM EDTA, and 20 mM NaCl. In the absence of ligand, and under these conditions, the oligonucleotides exist in single-stranded conformation. As a result, the oligonucleotide containing the radioactive label is not in close proximity to the SPA bead, and the light given off by the beads is low, i.e., at background. As a duplex-stabilizing ligand is added, the radioactive ^33P is brought into close proximity to the SPA bead, and the light emitted from the SPA bead increases.

[2] = system: G/C rich sequence 5′-CGCGCC-3′ (SEQ ID NO: 7) F/Q indicator pair; assay: Fluorescence quenching direct binding assay, G/C rich DNA; settings: change in fluorescence similar to single-stranded controls
Protocol: The specific examples described in this section employ fluorescence quenching as the detection system. In these examples, because conditions are adjusted to maintain the oligonucleotides in single-stranded form in the absence of the ligand, the assay starts with the system at a high or maximum level of fluorescence, and fluorescence generally decreases, depending on binding affinity, as the ligand is added.
In the Figure legends, RNA oligonucleotides are denoted by an “r” at the beginning of the sequence, and single stranded controls by “ss” at the end of the sequence. These single stranded sequence, are used alone in control experiments, which thus employ only an “F” strand and no complementary quenching strand. Any quenching of fluorescence that is not due to hybridization can thus be acounted for. Maximum quenching expected on complete hybridization of these oligonucleotides is 85-90%; therefore some signal remains after complete hybridization. […]
According to the general method described above, increasing amounts of netropsin or actinomycin, respectively, were added to mixtures of selected F/Q indicator oligonucleotide pairs, whose sequences are shown in the legends of FIGS. 1 and 3. […] The Figures show the level of fluorescence observed, relative to a control having no added drug, for each indicator pair (or single strand) as the level of added drug was increased. […]

Structure (SMILES)	sequence preference of binding (FIGS. 4A-E) ([1]; A/T rich 5′-AAAATAATAAAG, G/C rich 5′-GGCGCGG, mixed 5′-GTTGCAGATC, increasing drug)	duplex stabilization preference (Table II) ([1]; G/C-rich SEQ 6, A/T-rich SEQ 2, mixed SEQ 12 duplexes, 0, 100, 500 nM drug)	binding (decrease in fluorescence, FIG. 3A) [2]
Cn1cc(NC(=O)c2cc(NC(=O)c3cc(NC=O)cn3C)cn2C)cc1C(=O)NCCC(=N)N [Distamycin, distamycin]	preference for A/T-rich and mixed sequences	preferentially stabilizes the A/T-rich duplex and the mixed duplex	
Cn1cc(NC(=O)c2cc(NC(=O)CN=C(N)N)cn2C)cc1C(=O)NCCC(=N)N [Netropsin, netropsin]			does not bind well
